From article PMC4449006, “Targeting KRAS Oncogene in Colon Cancer Cells with 7-Carboxylate Indolo[3,2-b]quinoline Tri-Alkylamine Derivatives” (PLoS ONE, 2015)
Where a name gives a salt, the structure may show the parent alone.

Key:
HSP90A G-quadruplex DNA = assay: FRET melting assay, HSP90A G-quadruplex DNA; format: binding; conditions: standard deviation < 0.2°C; for ΔTm (°C) HSP90A 1 μM: 1 μM compound; for ΔTm (°C) HSP90A 2 μM: 2 μM compound
Procedure: (§1) The capacity of compounds 1a-d, 2a-d and the standard G4 ligand TMPyP4 (Fig 1) to bind and stabilize KRAS [26] and HSP90A [27] G4 DNA structures as well as duplex DNA (T-loop) was evaluated by a Fluorescence Resonance Energy Transfer (FRET) melting assay. […] It was observed that the basicity of side chains correlates positively with thermal G4 stabilization of all DNA sequences up to an optimal pKa ~ 8.0–9.0 (Fig 2). Heterocyclic amines at the end of alkyl side chain (1b and 2b) appear to improve binding to G4s and complex stabilization compared to the di-ethylamine group (1a and 2a), which cannot be explained by differences in basicity between terminal groups. […] However, this was not observed for the isomeric pair 1a / 2a.
(§2) All oligonucleotides were purchased from Eurofins MWG Synthesis GmbH, Germany. The labeled oligonucleotides used in the FRET assays had attached the donor fluorophore FAM (6-carboxyfluorescein) and the acceptor fluorophore TAMRA (6-carboxytetramethylrhodamine): KRAS21R (5’-FAM-[…]-TAMRA-3’); HSP90A (5’- [FAM]-[…]-[TAMRA]-3’); T-Loop (5’-FAM-[…]-TAMRA-3’). Each oligonucleotide was initially diluted to a storage solution at 100 μM in nuclease free water (not DEPC-treated), purchased from Ambion Applied Biosystems UK.
(§3) The ability of IQ3A and TMPyP4 to stabilize G-quadruplex and duplex DNA sequences was investigated using a Fluorescence Resonance Energy Transfer (FRET) assay. Stock solution of the oligonucleotides sequences at 20 μM and subsequent dilutions were obtained from storage solutions diluting with K-cacodylate buffer pH = 7.4, containing 60 mM K^+ (10 mM potassium cacodylate, 50 mM KCl). The FRET probe sequences were diluted from stock to the correct concentration (0.4 μM) and then annealed by heating to 95°C for 10 min, followed by cooling to RT. Test compounds were prepared as 1 mM in 10% DMSO and 10% 1mM HCl in HPLC-grade water. The rest of the dilutions were performed using FRET buffer. Annealed DNA (50 μL) and compound solution (50 μL) were distributed across 96-well RT-PCR plates (BioRad; MJ Research, Waltham, MA, USA). Relevant controls were also performed to check for interference with the assay. Fluorescence readings were made on a DNA Engine Opticon (MJ Research) with excitation at 450–495 nm and detection at 515–545 nm, taken at intervals of 0.5°C in the range 30–100°C, with a constant temperature being maintained for 30 s prior to each reading to ensure a stable value. Experiments were performed in triplicate. Final analysis of the data was carried out with GraphPad Prism 5.0 software (GraphPad Software, Inc). The advanced curve-fitting function in GraphPad Prism was used for calculation of ΔT m values and associated standard deviations.

KRAS21 G-quadruplex DNA = assay: FRET melting assay, KRAS G-quadruplex DNA; format: binding; conditions: standard deviation < 0.2°C; for ΔTm (°C) KRAS21 1 μM: 1 μM compound; for ΔTm (°C) KRAS21 2 μM: 2 μM compound
Procedure: as §1, §2, §3

T-Loop duplex DNA = assay: FRET melting assay, duplex DNA; format: binding; conditions: standard deviation < 0.2°C; for ΔTm (°C) T-Loop 1 μM: 1 μM compound; for ΔTm (°C) T-Loop 2 μM: 2 μM compound
Procedure: as §1, §2, §3

SW620 cells [1] = assay: MTS short-term cytotoxicity assay (72 h), SW620; format: cell-based; conditions: for SW620 IC65 / IC50: 72 h, MTS, standard errors ≤ 0.1; for IC50: Homo sapiens, SW-620, read-out: SW620 IC50
Procedure: (§4) The short-term effect of compounds at 72 h on cell growth was studied using colorectal carcinoma cell lines with different KRAS and TP53 genotypes: human colorectal carcinoma HCT116 (mut Kras, wild-type (wt) p53), and human metastatic colorectal adenocarcinoma SW620 (mut Kras, mut p53). In parallel, we also used the immortalized human embryonic kidney cell line HEK293T (wt Kras, wt p53) and normal human colon fibroblast cells CCD18co (wt Kras, wt p53).
(§5) SW620 human colorectal adenocarcinoma cells (European Collection of Cell Cultures, ECACC, Porton Down, Wiltshire, UK), HEK293T human embryonic kidney cells (ATCC, LGC Standards, UK) HCT116 human colon carcinoma cells (ECACC), HCT116 p53(+/+) and p53(−/−) isogenic human colon cancer cells (GRCF Cell Center and Biorepository, the Johns Hopkins University, School of Medicine, Baltimore, MD, USA), were grown in Dulbecco’s modified Eagle’s medium (DMEM) supplemented with 10% fetal bovine serum, and 1% antibiotic/antimycotic (Invitrogen, Grand Island, NY, USA), CCD18co human colon fibroblasts (ATCC, CRL-1459) were grown in Minimum Essential Medium (MEM) supplemented with 10% fetal bovine serum, 1% antibiotic/antimycotic, 2 mM GlutaMAX, 0,1 mM Non-essential amino acids (NEAA) (Invitrogen) and […] Recombinant Human TNF-α (Peprotech, USA) and maintained at 37°C in a humidified atmosphere of 5% CO2.
(§6) Cell viability was evaluated by the tetrazolium dye (MTS) Short-Term Cytotoxicity Assay. […] Following 72 h of compound exposure, cell viability was evaluated using the CellTiter 96 AQueous Non-Radioactive Cell Proliferation Assay (Promega, Madison, WI, USA), using 3-(4,5-dimethylthiazol-2-yl)-5-(3-carboxymethoxyphenyl)-2-(4-sulfophenyl)-2H-tetrazolium, inner salt (MTS) as previously described [35]. Cell viability data were expressed as mean ±SD from at least three independent experiments. IC50 and IC65 values were determined using GaphPad Prism v.5.00 (GraphPad Software). In selected experiments, cell viability was also assessed by trypan blue exclusion assay, and general cell death by LDH activity from cell culture supernatants.

HEK293T cells = assay: MTS short-term cytotoxicity assay (72 h), HEK293T; format: cell-based, human; conditions: MTS; for IC50: Homo sapiens, HEK-293T, standard errors ≤ 0.1, read-out: HEK293T IC50; for HEK293T IC65: standard errors ≤ 0.1
Procedure: as §4, §5, §6

HCT116 cells [2] = assay: MTS short-term cytotoxicity assay (72 h), HCT116; format: cell-based, human; conditions: for HCT116 IC65 / IC50: 72 h, MTS, standard errors ≤ 0.1; for Selective index (SI) = IC50 CCD-18co / IC50 HCT116: CCD18co vs HCT116; for IC50: Homo sapiens, HCT-116, read-out: HCT116 IC50
Procedure: as §4, §5, §6

CCD18co cells = assay: MTS short-term cytotoxicity assay (72 h), CCD18co; format: cell-based; conditions: Homo sapiens, CCD-18Co, MTS, standard errors ≤ 0.1, read-out: CCD18co IC50
Procedure: as §4, §5, §6

HCT116 cells [3] = tested on: HCT116 cells; parameters: method as in PMID 23960016; conditions: HCT116 vs primary rat hepatocytes; cited from earlier work
KRAS mRNA = KRAS mRNA steady-state levels by Taqman Real-time RT-PCR; conditions: IC50 concentrations
SW620 cells [4] = assay: Guava ViaCount assay, SW620; format: cell-based, human; conditions: SW620, 72 h, IC50 and IC65 concentrations
Source text: Subsequently, the Guava ViaCount assay was used to evaluate the effects of IQ3A compounds on cell death induction in cancer (HCT116 and SW620) and non-malignant (HEK293T and CCD18co) cells, compared to 5-FU and TMPyP4 at equitoxic concentrations (IC50 and IC65). Down-regulation of mutant KRAS expression by antisense oligonucleotides in colorectal cancer cells,[8],[30] and by a MAZ-binding oligonucleotide decoy in pancreatic cancer cells has been associated with increased apoptosis and cell growth arrest. Also, anticancer drugs, such as 5-FU and G4 stabilizers of telomeric and oncogene promoter sequences such as TMPyP4, are known to induce a generalized cell response leading to cell growth arrest and cell death by apoptosis (DNA damage response),[32], which involves activation of the pro-apoptotic transcription factor p53 among other pathways in the case of 5-FU [34]. […] The effect of TMPyP4 on SW620 was not studied, as this cell line was not sensitive to this compound up to a 20 μM concentration.
Fig 3 Exposure to IQ3A compounds induces cell death, mainly by apoptosis in HCT116 cells. […] Results are expressed as the mean percentage (%) of viable, mid-apoptotic and dead cells ± SEM, of at least three different experiments, for A. IC50, and for B. IC65 compound concentrations. a, p < 0.05; b, p < 0.01 from DMSO (vehicle control); c, p < 0.05; and d, p < 0.01 from 5-FU. […]

SMILES	melting point [°C]	ΔTm (°C) HSP90A 1 μM (HSP90A G-quadruplex DNA) [°C]	ΔTm (°C) HSP90A 2 μM (HSP90A G-quadruplex DNA) [°C]	ΔTm (°C) KRAS21 1 μM (KRAS21 G-quadruplex DNA) [°C]	ΔTm (°C) KRAS21 2 μM (KRAS21 G-quadruplex DNA) [°C]	ΔTm (°C) T-Loop 1 μM (T-Loop duplex DNA) [°C]	ΔTm (°C) T-Loop 2 μM (T-Loop duplex DNA) [°C]	SW620 IC65 (SW620 cells [1]) [nM]	IC50 (SW620 cells [1]) [nM]	IC50 (HEK293T cells) [nM]	HEK293T IC65 (HEK293T cells) [nM]	HCT116 IC65 (HCT116 cells [2]) [nM]	Selective index (SI) = IC50 CCD-18co / IC50 HCT116 (HCT116 cells [2])	IC50 (HCT116 cells [2]) [nM]	IC50 (CCD18co cells) [nM]	Selective growth inhibition of KRAS mutant HCT116 cells compared to primary rat hepatocytes (HCT116 cells [3]) [fold]	down-regulation of KRAS transcription (mRNA) (KRAS mRNA; HCT116, 72 h) [%]	down-regulation of KRAS transcription (mRNA) (KRAS mRNA; SW620, 72 h)	IC50 fold lower than that of 5-FU (SW620 cells [1]; SW620 cells) [fold]	induction of apoptosis / cell death (SW620 cells [4])
O=C(OCCN1CCCC1)c1ccc2c(c1)c1nc3ccccc3c(OCCN3CCCC3)c1n2CCN1CCCC1 (as salt: salt) [1b]	159 to 164	–	–	–	–	–	–	–	–	–	–	–	–	–	–	–	–	–	–	–
O=C(OCCN1CCOCC1)c1ccc2c(c1)c1nc3ccccc3c(OCCN3CCOCC3)c1n2CCN1CCOCC1 (as salt: salt) [1c]	141 to 145	–	–	–	–	–	–	–	–	–	–	–	–	–	–	–	–	–	–	–
O=C(OCCCN1CCCCC1)c1ccc2c(c1)c1nc3ccccc3c(OCCCN3CCCCC3)c1n2CCCN1CCCCC1 (as salt: salt) [1d]	124 to 128	–	–	–	–	–	–	–	–	–	–	–	–	–	–	–	–	–	–	–
O=C(OCCN1CCCC1)c1ccc2c(c1)c1nc3ccccc3c(OCCN3CCCC3)c1n2CCN1CCCC1 [1b]	–	12	16	5	10	<2	6	–	–	–	–	–	–	–	–	–	–	–	–	–
O=C(OCCN1CCOCC1)c1ccc2c(c1)c1nc3ccccc3c(OCCN3CCOCC3)c1n2CCN1CCOCC1 [1c]	–	4	7	<2	<2	<2	<2	–	–	–	–	–	–	–	–	–	–	–	–	–
O=C(OCCCN1CCCCC1)c1ccc2c(c1)c1nc3ccccc3c(OCCCN3CCCCC3)c1n2CCCN1CCCCC1 [1d]	–	15	21	9	18	<2	10	–	–	–	–	–	–	–	–	–	–	–	–	–
CCN(CC)CCOC(=O)c1ccc2c(c1)c1c(c(=O)c3ccccc3n1CCN(CC)CC)n2CCN(CC)CC [2a]	–	11	15	4	7	<2	<2	1440	670	670	940	1600	5.46	990	5410	100	~40	not significantly so	–	–
O=C(OCCN1CCCC1)c1ccc2c(c1)c1c(c(=O)c3ccccc3n1CCN1CCCC1)n2CCN1CCCC1 [2b]	–	14	19	10	16	3	6	–	–	–	–	–	–	–	–	–	–	–	–	–
O=C(OCCCN1CCCCC1)c1ccc2c(c1)c1c(c(=O)c3ccccc3n1CCCN1CCCCC1)n2CCCN1CCCCC1 [2d]	–	19	25	13	22	4	12	450	280	700	1120	580	5.45	400	2180	–	~40	not significantly so	~20	–
O=c1[nH]cc(F)c(=O)[nH]1 [5-FU, 5-fluorouracil, reference compound]	–	–	–	–	–	–	–	8320	5390	2660	4130	4130	> 42	2380	> 100000	–	–	–	–	able to induce apoptosis in a dose-dependent manner
